Assay results as given in patent publication US8722849B2, “Polypeptides” (Novo Nordisk A/S, priority 2011, dated 2014).
Values after ≈ are worked out from the molar mass of the structure shown. Read-outs that look alike come from different tables or passages of the source. Starred links: 1 amine or outer side, 2 acyl side, 3 side chain; linkers in the order of their positions; H or OH if unused. Positions of bridges follow the written chain, without caps; N, C: chain ends. Residues, ends and D or L forms follow the SMILES beside them. *: point of attachment. C20 diacid = O=C(O)CCCCCCCCCCCCCCCCCCC(=O)*; C18 diacid = O=C(O)CCCCCCCCCCCCCCCCC(=O)*; γGlu = O=C(O)[C@H](CCC(=O)[*:2])N[*:1]

Experiments:
[1] = target: T1, human amylin receptor (amylin 3(a) receptor: human calcitonin receptor + RAMP-3) (Homo sapiens, UniProt O60896+P30988); test: Assay (II)a functional CRE-luciferase assay, human amylin receptor; type: cell-based; details: Table 2; BHK amylin 3(a)-receptor/CRE-luc cells
T1 construct: expressed in transfected cells; host or cells: BHK570
T1 sequence (P30988 25-474): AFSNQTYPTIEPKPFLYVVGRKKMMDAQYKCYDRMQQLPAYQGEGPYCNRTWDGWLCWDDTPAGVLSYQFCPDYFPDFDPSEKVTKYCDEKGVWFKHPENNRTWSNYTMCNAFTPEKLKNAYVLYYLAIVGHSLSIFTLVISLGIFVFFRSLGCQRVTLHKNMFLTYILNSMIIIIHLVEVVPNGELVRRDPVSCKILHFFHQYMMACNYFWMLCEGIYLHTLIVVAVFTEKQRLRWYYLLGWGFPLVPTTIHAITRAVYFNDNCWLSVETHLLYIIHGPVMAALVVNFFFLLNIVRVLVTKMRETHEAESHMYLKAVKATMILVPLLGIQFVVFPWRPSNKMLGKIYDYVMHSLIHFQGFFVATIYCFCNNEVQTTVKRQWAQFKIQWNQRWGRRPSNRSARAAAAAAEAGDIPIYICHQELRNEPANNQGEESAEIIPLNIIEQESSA
T1 sequence (O60896 24-148 partner): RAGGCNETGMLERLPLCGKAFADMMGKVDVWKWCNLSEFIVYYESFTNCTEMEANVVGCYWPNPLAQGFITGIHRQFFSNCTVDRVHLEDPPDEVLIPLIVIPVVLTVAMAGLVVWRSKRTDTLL

[2] = system: food intake; test: Assay (I) efficacy testing on appetite (food intake), ad libitum fed rat model; type: in vivo, Sprague Dawley (SD) rats
Outline: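 Sprague Dawley rats (200–250 g), single-housed under reversed light cycle with free food and water, got one ip, po or sc dose of 0.01–3 mg/kg just before lights-off. Individual food intake recorded hourly for 7 h, then at 24 h and sometimes 48 h; groups of 5–8, Grubbs outliers excluded.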

[3] = target: T2, human calcitonin receptor (Homo sapiens, UniProt P30988); test: Assay (II)a functional CRE-luciferase assay, human calcitonin receptor; type: cell-based; details: Table 7; human calcitonin (CTa) receptor
T2 construct: expressed in transfected cells; host or cells: BHK570
T2 sequence (P30988 25-474): T1 sequence (P30988 25-474)

[4] = Assay (IV) determination of solubility; type: physicochemical
Outline: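 Polypeptide in water (~500 nmol/ml stock) was mixed 1:1 with 100 mM buffers from pH 3.0 to 8.0 (glycylglycine pH 3.0–5.0; bistrispropane pH 6.0–8.0). After 18 hours at room temperature, samples were centrifuged and the polypeptide remaining in solution was quantified by HPLC.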

[5] = bistrispropane buffer, pH 6, pH 6.0, read-out: Solubility pH 6.0
[6] = bistrispropane buffer, pH 6.5, pH 6.5, read-out: Solubility pH 6.5
[7] = bistrispropane buffer, pH 7, pH 7.0, read-out: Solubility pH 7.0
[8] = bistrispropane buffer, pH 7.5, pH 7.5, read-out: Solubility pH 7.5
[9] = bistrispropane buffer, pH 8, pH 8.0, read-out: Solubility pH 8.0
[10] = glycylglycine buffer, pH 3, pH 3.0, read-out: Solubility pH 3.0
[11] = glycylglycine buffer, pH 4, pH 4.0, 18 hours at room temperature, Table 2, read-out: Solubility pH 4.0
[12] = glycylglycine buffer, pH 4, pH 4.0, read-out: Solubility pH 4.0
[13] = glycylglycine buffer, pH 5, pH 5.0, read-out: Solubility pH 5.0

EC50 [1] [nM]	EC50 [3] [nM]	solubility at 18 h [4, 5] [µM]	solubility at 18 h [4, 6] [µM]	solubility at 18 h [4, 7] [µM]	solubility at 18 h [4, 8] [µM]	solubility at 18 h [4, 9] [µM]	solubility at 18 h [4, 10] [µM]	solubility at 18 h [4, 11] [µM]	solubility at 18 h [4, 12] [µM]	solubility at 18 h [4, 13] [µM]	SMILES	Food intake reduction 0-24 h 3 nmol/kg (%) ([2]; 0-24 h)	Food intake reduction 24-48 h 3 nmol/kg (%) ([2]; 24-48 h)	Food intake reduction 0-24 h 30 nmol/kg (%) ([2]; 0-24 h, 30 nmol/kg)	Food intake reduction 24-48 h 30 nmol/kg (%) ([2]; 24-48 h, 30 nmol/kg)
0.0795	0.947	> 200	156 (≈ 719 µg/mL)	37 (≈ 170 µg/mL)	27 (≈ 124 µg/mL)	26 (≈ 120 µg/mL)	> 200	> 200	> 200	> 200	CC[C@H](C)[C@H](NC(=O)[C@@H]1CCCN1C(=O)CNC(=O)[C@H](Cc1ccccc1)NC(=O)[C@H](CC(N)=O)NC(=O)[C@H](CC(N)=O)NC(=O)[C@H](CO)NC(=O)[C@H](CO)NC(=O)[C@H](Cc1c[nH]cn1)NC(=O)[C@H](CCCNC(=N)N)NC(=O)[C@H](CC(C)C)NC(=O)[C@H](Cc1ccccc1)NC(=O)[C@H](CCC(=O)O)NC(=O)[C@H](C)NC(=O)[C@H](CC(C)C)NC(=O)[C@H](CCCNC(=N)N)NC(=O)[C@H](CCC(N)=O)NC(=O)[C@@H](NC(=O)[C@H](C)NC(=O)[C@@H]1CSSC[C@H](NC(=O)[C@H](CCCCN)NC(=O)[C@H](Cc2c[nH]cn2)NC(=O)CC[C@H](NC(=O)CCCCCCCCCCCCCCCCC(=O)O)C(=O)O)C(=O)N[C@@H](CC(N)=O)C(=O)N[C@@H]([C@@H](C)O)C(=O)N[C@@H](C)C(=O)N[C@@H]([C@@H](C)O)C(=O)N1)[C@@H](C)O)C(=O)N[C@@H](CC(C)C)C(=O)N1CCC[C@H]1C(=O)N1CCC[C@H]1C(=O)N[C@H](C(=O)N[C@@H](CC(N)=O)C(=O)N[C@H](C(=O)NCC(=O)N[C@@H](CO)C(=O)N[C@@H](Cc1c[nH]cn1)C(=O)N[C@H](C(=O)N[C@@H](Cc1ccc(O)cc1)C(N)=O)[C@@H](C)O)C(C)C)[C@@H](C)O [Example 71, N-alpha-[(S)-4-Carboxy-4-(17-carboxyheptadecanoylamino)butyryl]-His-[Glu14,Arg17,His35]-pramlintide] ({C18 diacid-γGlu}-HKCNTATCATQRLAEFLRHSSNNFGPILPPTNVGSHTY-NH2; disulfide 3-8 (inferred); C-terminus assumed)	10	0	–	–
0.0985	0.157	> 200	57 (≈ 273 µg/mL)	2 (≈ 9.56 µg/mL)	1 (≈ 4.78 µg/mL)	3 (≈ 14.3 µg/mL)	> 200	> 200	> 200	> 200	CC[C@H](C)[C@H](NC(=O)[C@@H]1CCCN1C(=O)CNC(=O)[C@H](Cc1ccccc1)NC(=O)[C@H](CC(N)=O)NC(=O)[C@H](CC(N)=O)NC(=O)[C@H](CO)NC(=O)[C@H](CO)NC(=O)[C@H](Cc1c[nH]cn1)NC(=O)[C@H](Cc1c[nH]cn1)NC(=O)[C@H](CC(C)C)NC(=O)[C@H](Cc1ccccc1)NC(=O)[C@H](CCC(=O)O)NC(=O)[C@H](C)NC(=O)[C@H](CC(C)C)NC(=O)[C@H](CCCNC(=N)N)NC(=O)[C@H](CCC(N)=O)NC(=O)[C@@H](NC(=O)[C@H](C)NC(=O)[C@@H]1CSSC[C@H](NC(=O)[C@H](Cc2c[nH]cn2)NC(=O)[C@H](Cc2c[nH]cn2)NC(=O)[C@H](Cc2c[nH]cn2)NC(=O)CC[C@H](NC(=O)CCCCCCCCCCCCCCCCCCC(=O)O)C(=O)O)C(=O)N[C@@H](CCCNC(=N)N)C(=O)N[C@@H]([C@@H](C)O)C(=O)N[C@@H](C)C(=O)N[C@@H]([C@@H](C)O)C(=O)N1)[C@@H](C)O)C(=O)N[C@@H](CC(C)C)C(=O)N1CCC[C@H]1C(=O)N1CCC[C@H]1C(=O)N[C@H](C(=O)N[C@@H](CC(N)=O)C(=O)N[C@H](C(=O)NCC(=O)N[C@@H](CO)C(=O)N[C@@H](CC(N)=O)C(=O)N[C@H](C(=O)N[C@@H](Cc1ccc(O)cc1)C(N)=O)[C@@H](C)O)C(C)C)[C@@H](C)O [Example 22, N-alpha-[(S)-4-Carboxy-4-(19-carboxynonadecanoylamino)butyryl]-His-His-[His1,Arg3,Glu14,His17]-pramlintide] ({C20 diacid-γGlu}-HHHCRTATCATQRLAEFLHHSSNNFGPILPPTNVGSNTY-NH2; disulfide 4-9 (inferred))	26	5	–	–
0.0934	0.15	52 (≈ 233 µg/mL)	16 (≈ 71.7 µg/mL)	15 (≈ 67.3 µg/mL)	58 (≈ 260 µg/mL)	138 (≈ 619 µg/mL)	> 200	> 200	> 200	> 200	CC[C@H](C)[C@H](NC(=O)[C@@H]1CCCN1C(=O)CNC(=O)[C@H](Cc1ccccc1)NC(=O)[C@H](CC(N)=O)NC(=O)[C@H](CC(N)=O)NC(=O)[C@H](CO)NC(=O)[C@H](CO)NC(=O)[C@H](CCCNC(=N)N)NC(=O)[C@H](Cc1c[nH]cn1)NC(=O)[C@H](CC(C)C)NC(=O)[C@H](Cc1ccccc1)NC(=O)[C@H](CCC(=O)O)NC(=O)[C@H](C)NC(=O)[C@H](CC(C)C)NC(=O)[C@H](CCCNC(=N)N)NC(=O)[C@H](CCC(N)=O)NC(=O)[C@@H](NC(=O)[C@H](C)NC(=O)[C@@H]1CSSC[C@H](NC(=O)[C@H](Cc2c[nH]cn2)NC(=O)CC[C@H](NC(=O)CCCCCCCCCCCCCCCCCCC(=O)O)C(=O)O)C(=O)N[C@@H](CC(N)=O)C(=O)N[C@@H]([C@@H](C)O)C(=O)N[C@@H](C)C(=O)N[C@@H]([C@@H](C)O)C(=O)N1)[C@@H](C)O)C(=O)N[C@@H](CC(C)C)C(=O)N1CCC[C@H]1C(=O)N1CCC[C@H]1C(=O)N[C@H](C(=O)N[C@@H](CC(N)=O)C(=O)N[C@H](C(=O)NCC(=O)N[C@@H](CO)C(=O)N[C@@H](CC(N)=O)C(=O)N[C@H](C(=O)N[C@@H](Cc1ccc(O)cc1)C(N)=O)[C@@H](C)O)C(C)C)[C@@H](C)O [Example 1, N-alpha-[(S)-4-Carboxy-4-(19-carboxynonadecanoylamino)butyryl]-[His1,Glu14,His17,Arg18]-pramlintide] ({C20 diacid-γGlu}-HCNTATCATQRLAEFLHRSSNNFGPILPPTNVGSNTY-NH2; disulfide 2-7 (inferred))	50	45	93	92
0.0779	0.131	69 (≈ 315 µg/mL)	32 (≈ 146 µg/mL)	42 (≈ 192 µg/mL)	89 (≈ 406 µg/mL)	155 (≈ 708 µg/mL)	> 200	> 200	> 200	13 (≈ 59.3 µg/mL)	CC[C@H](C)[C@H](NC(=O)[C@H](CCC(=O)O)NC(=O)CNC(=O)[C@H](Cc1ccccc1)NC(=O)[C@H](CC(N)=O)NC(=O)[C@H](CC(N)=O)NC(=O)[C@H](CO)NC(=O)[C@H](CO)NC(=O)[C@H](CCCNC(=N)N)NC(=O)[C@H](Cc1c[nH]cn1)NC(=O)[C@H](CC(C)C)NC(=O)[C@H](Cc1ccccc1)NC(=O)[C@H](CCC(=O)O)NC(=O)[C@H](C)NC(=O)[C@H](CC(C)C)NC(=O)[C@H](CCCNC(=N)N)NC(=O)[C@H](CCC(N)=O)NC(=O)[C@@H](NC(=O)[C@H](C)NC(=O)[C@@H]1CSSC[C@H](NC(=O)[C@H](Cc2c[nH]cn2)NC(=O)CC[C@H](NC(=O)CCCCCCCCCCCCCCCCCCC(=O)O)C(=O)O)C(=O)N[C@@H](CC(N)=O)C(=O)N[C@@H]([C@@H](C)O)C(=O)N[C@@H](C)C(=O)N[C@@H]([C@@H](C)O)C(=O)N1)[C@@H](C)O)C(=O)N[C@@H](CC(C)C)C(=O)N[C@@H](CO)C(=O)N[C@@H](CCCNC(=N)N)C(=O)N[C@H](C(=O)N[C@@H](CC(N)=O)C(=O)N[C@H](C(=O)NCC(=O)N[C@@H](CO)C(=O)N[C@@H](CC(N)=O)C(=O)N[C@H](C(=O)N[C@@H](Cc1ccc(O)cc1)C(N)=O)[C@@H](C)O)C(C)C)[C@@H](C)O [Example 7, N-alpha-[(S)-4-Carboxy-4-(19-carboxynonadecanoylamino)butyryl]-[His1,Glu14,His17,Arg18,Glu25,Ser28,Arg29]-pramlintide] ({C20 diacid-γGlu}-HCNTATCATQRLAEFLHRSSNNFGEILSRTNVGSNTY-NH2; disulfide 2-7 (inferred); C-terminus assumed)	53	46	–	–
